The results in this text go back to patent publication EP0263213B1, “C20 Through C26 amino steroids” (THE UPJOHN COMPANY, priority 1986, dated 1988).

By % Inhibition is commonly meant the change of the read-out against control, counted positive when it falls. A low value points to little suppression.

The subject of one test is chick embryo. Kind of test: fertile egg or chick embryo assay of Folkman (angiogenesis). In kind it is in vivo. As to conditions: 50 »g/10 »l in the presence of heparin. An excerpt:
According to this procedure compounds which are considered to be "active" (i.e. antiangiogenic) give an avascular zone of 4 mm or greater in some embryos when tested at 50 »g/10 »l in the presence of 50 »g/10 » of heparin.

In test [1] the test system is rat brain synaptosomes. Description: Conjugated Diene Formation Assay. It counts as biochemical. Conditions: active = inhibits conjugated diene formation by 50% or more; 100 »M (or less) of drug, 100 »M hydrogen peroxide, 200 »M ferrous ammonium sulfate. The text has this: The formation of conjugated dienes as assayed by Braughler, J. Neurochem., 44, 1282 (1985), Bucher, Fund. Applied Tox., 3, 222 (1983) and Tein, Arch. Biochem. Biophy., 216, 142 (1982) is a standard pharmacological laboratory procedure useful for identifying compounds which inhibit lipid peroxidation. Since lipid peroxidation is involved in the pathophysiology of central nervous system trauma, compounds which inhibit conjugated diene formation are useful in treating the conditions listed below.
44, 1282 (1985). Synaptosomal suspension (10 »l) is added to 1 ml of physiological (normal) saline containing 1 % Lubrol PX (Sigma Chemical Co. St. Louis, Mo.), 100 »M hydrogen peroxide and 100 »M (or less) of the drug to be tested prepared in either absolute ethanol or water depending upon solubility. The reaction is started by the rapid addition of 200 »M ferrous ammonium sulfate is prepared in argon-purged water. The sample is rapidly mixed and the change in absorbance at 232nm is followied in a Gilford Response Spectrophotometer equipped with a rapid sampler. Due to the rapidity of the reaction, rapid addition of the iron, rapid mixing and sampling are obligatory to the accuracy of the assay. For best results absorbance readings of one/sec should be started within 5 sec following the addition of iron. The initial linear rate of absorbance change during the first 30 sec of reaction are compared with the rate of a reaction containing all reagents except synaptosomes. The difference in rates is the rate of conjugated diene formation. Rates with drug are compared to rates obtained in the absence of drug and the % inhibition is calculated. A compound that inhibits conjugated diene formation by 50% or more is considered to be "active".

A further test has as its system arachidonic acid. Description: Arachidonic Acid Antagonism Assay (AAAA). It counts as in vivo. As to conditions: male CF-1 mice. As for the experimental part:
Since these metabolites contribute to the pathological problems associated with stroke, spinal trauma and head injury, compounds which antagonize arachidonic acid are useful in treating stroke, spinal trauma and head injury.
While not necessary to determine arachidonic acid antagonism, the above assay has been modified as follows: Charles River male CF-1 mice weighing 18-22g are treated IV with the test compound dissolved in 1.0% Tween-80 and 0.1% hydrochloric acid in distilled water, 0.2 ml total volume. Fifteen minutes later sodium arachidonate (90% pure) in physiological (normal) saline is injected into the tail vein. The LD₅₀ is measured using the Spearman-Karber method with a log dose interval of 0.05 (N=6). Compounds which elevate the LD₅₀ outside of the 95% confidence interval of the control LD₅₀ are considered to be "active".

In the next test the test system is mucous secretion. Kind of test: inhibition of mucous secretion assay of Johnson. As to conditions: active = inhibits or blocks enhancement of induced mucous secretions. The text has this:
The inhibition of mucous secretion assay of Johnson Int. […] According to this procedure compounds which inhibit or block enhancement of induced mucous secretions when tested are considered to be "active".

A further test has as its system ACAT. Kind of test: AcylCoA:Cholesterol Acyltransferase (ACAT) Inhibition Assay. It counts as cell-based. As to conditions: for inhibiting ACAT: active = inhibits ACAT activity equal to, or greater than, that of chlorpromazine. An excerpt: ACAT esterifies arterial cholesterol which is a key reaction in the development of atherosclerosis. The procedure of Bell, Can. […] In the ACAT assay it is preferred to use Fu5AH cells, see Lipids 9, 526 (1974). According to this procedure, compounds which inhibit ACAT activity equal to, or greater than, that of chlorpromazine are considered "active".

Another test concerns SEA Japanese Quail. Description: Antiatherosclerosis Screen in SEA Japanese Quail. As to conditions: quail fed an atherogenic diet; active = decrease of serum or arterial cholesterol > 30 %. It counts as in vivo.
Test [2] deals with aspirin/cold induced ulcer. Description: aspirin/cold induced ulcer assay of Rainsford. In kind it is in vivo. As to conditions: active = 50% or more reduction of ulcer index. An excerpt:
According to this procedure compounds which give a 50% or more reduction of ulcer index are considered to be "active".

Test [3] deals with rat brain synaptosomes. Kind of test: Malonyldialdehyde (MDA) Formation Assay. It counts as biochemical. Conditions: active = inhibits MDA formation by 50% or more at 200»M or less; 10 min at 37°, pH 7.0, 150 uM Fe+++ and 50 uM Fe++. As for the experimental part:
Since lipid peroxidation is involved in the pathophysiology of central nervous system trauma, compounds which inhibit MDA formation are useful in treating the conditions listed below.
While not necessary to determine MDA formation, the above assays have been modified as follows: rat brain synaptosomes are prepared as described in the Example about the conjugated diene assay, except that the final wash of the synaptosomes and final suspension are in physiological (normal) saline in which the pH has been adjusted to 7.0. The synaptosomes are incubated for 10 min at 37° in physiological (normal) saline pH 7.0 (total volume = 100 ul) containing; 10 ul synaptosomal suspension, 10% DMSO plus or minus drug, 150 uM Fe⁺⁺⁺ and 50 uM Fe++. The incubation is started by the rapid addition of iron to the otherwise complete reaction. The iron solutions are prepared fresh as ferric chloride and ferrous ammonium sulfate in argon-purged water. Following the 10 min incubation, the reaction is stopped by the addition of 500 ul ice-cold 12% trichloroacetic acid prepared in 0.5 N hydrochoric acid. Water (300 ul) is then added along with 100 ul of freshly prepared thiobarbituric acid (3.3% in 0.5N sodium hydroxide) and 10 ul of 5mM desferrioxamine. The sample is then heated in a boiling water bath for 20 minutes. The samples are cooled and centrifuged for 15 minutes at 1500 xg and the absorbance of the supernatant fraction is read at 532 nm. The % inhibition of MDA formation is calculated by dividing the absorbance of sample containing drug by the absorbance of samples incubated without drug. Reaction blanks are samples incubated in the absence of iron. A compound that inhibits MDA formation by 50% or more at a concentration of 200»M or less is considered "active".

In the next test the test system is mouse head injury. Kind of test: in vivo mouse head injury procedure of Hall (1 hr post-injury grip test). As to conditions: 1 hr after head injury, statistically significant (p < 0.05).
The subject of another test is interleukin-1. Description: inhibition of interleukin-1 induced T cell proliferation assay. It counts as cell-based. As to conditions: for % Inhibition at 10⁻⁶ M: interleukin-1 induced T cell proliferation. The text has this:
The inhibition of interleukin-1 induced T cell proliferation assay, Proc. Nat. […] Since people with arthritis make excess interleukin 1, compounds which inhibit the activity of interleukin 1 are useful in the treatment of arthritis. According to this procedure compounds which inhibit the activity of interleukin 1 greater that 30% at 10⁻⁶ M are considered to be "active".

Consider “11α,17α-Dihydroxy-21-[4-(2-pyridinyl)-1-piperazinyl]pregn-4-ene-3,20-dione 11-(3,3-dimethyl-1-butyrate dihydrochloride [Example 28]”, for which the “% of Embryos with 4 mm or Greater Avascular Zone” value with chick embryo is on record as 73%.
As to `CS(=O)(=O)O.C[C@]12CCC(=O)C=C1CC[C@@H]1C2=CC[C@@]2(C)[C@H]1CC[C@]2(O)C(=O)CN1CCN(c2ccccn2)CC1` [Example 2, 17α-Hydroxy-21-[4-(2-pyridinyl)-1-piperazinyl]pregna-4,9(11)-diene-3,20-dione methanesulfonate], in the test on rat brain synaptosomes [1], the “inhibition of conjugated diene formation” value is “demonstrate such activity by inhibition of conjugated dienes”. Besides, the arachidonic acid antagonism entry in the test on arachidonic acid (active = elevates the LD50 of sodium arachidonate outside the 95% confidence interval of the control LD50, test compound IV 15 minutes before) was “demonstrate arachidonic acid antagonism”. Further, the “inhibition of mucous secretion” value in the test with mucous secretion (methanesulfonate) is recorded as “preferred mucous inhibitors”.
On to `C[C@]12CCC(=O)C=C1CC[C@@H]1C2=CC[C@@]2(C)[C@H]1CC[C@]2(O)C(=O)CN1CCN(c2ccccn2)CC1.Cl` [Example 3, 17α-Hydroxy-21-[4-(2-pyridinyl)-1-piperazinyl]pregna-4,9(11)-diene-3,20-dione hydrogen chloride salt], for which, in the test with ACAT, the “% Inhibition of ACAT (5 »g/ml)” value was determined as 63.9% and the “inhibiting ACAT” value is recorded as “active in inhibiting ACAT”. In the test with SEA Japanese Quail, the “reduction of serum and arterial cholesterol” value is “demonstrates reduction of serum and arterial cholesterol”.
Turning to `CN(C)c1cc(N2CCN(CC(=O)[C@@]3(O)CC[C@H]4[C@@H]5CCC6=CC(=O)CC[C@]6(C)C5=CC[C@@]43C)CC2)nc(N(C)C)n1.Cl.Cl.O` [Example 16, 17α-Hydroxy-21-[4-[2,6-bis(dimethylamino)-4-pyrimidinyl]-1-piperazinyl]pregna-4,9(11)-diene-3,20-dione dihydrochloride hydrate], the “inhibition of mucous secretion” value with mucous secretion was “demonstrate such activity”. In addition, in the test with chick embryo, the “% of Embryos with 4 mm or Greater Avascular Zone” value was 91%. Moreover, the anti-ulcer activity entry in test [2] is “demonstrates anti-ulcer activity”.
Consider `CCN(CC)c1nc(N2CCCCC2)cc(N2CCN(CC(=O)[C@@]3(O)CC[C@H]4[C@@H]5CCC6=CC(=O)CC[C@]6(C)C5=CC[C@@]43C)CC2)n1.Cl.O` [Example 17], for which, in the test on arachidonic acid (100mg/kg, LD50 of sodium arachidonate, IV), the “% of Control LD₅₀ 100mg/kg” value is 150%. For the same compound, the “inhibition of MDA formation” value with rat brain synaptosomes [3] was “demonstrate such activity by inhibition of MDA formation”. In the test with ACAT, the “% Inhibition of ACAT (5 »g/ml)” value was found to be 32.2% and the “inhibiting ACAT” value was “active in inhibiting ACAT”.
With `CCN(CC)c1cc(N2CCN(CC(=O)[C@@]3(O)[C@H](C)C[C@H]4[C@@H]5CCC6=CC(=O)C=C[C@]6(C)C5=CC[C@@]43C)CC2)nc(N(CC)CC)n1.Cl.O` [Example 18, 21-[4-[2,6-Bis(diethylamino)-4-pyrimidinyl]-1-piperazinyl]-17α-hydroxy-16α-methylpregna-1,4,9(11)-triene-3,20-dione hydrochloride hydrate], the “% Increase in 1 hr Post-Injury Grip Test Scores After 3 mg/kg” value with mouse head injury is 112.6%. For the same compound, in the test on ACAT, the “% Inhibition of ACAT (5 »g/ml)” value was determined as 48.4% and the “inhibiting ACAT” value is “active in inhibiting ACAT”.
Consider `CS(=O)(=O)O.CS(=O)(=O)O.C[C@@H]1C[C@H]2[C@@H]3CCC4=CC(=O)C=C[C@]4(C)C3=CC[C@]2(C)[C@H]1C(=O)CN1CCN(c2cc(N3CCCC3)nc(N3CCCC3)n2)CC1` [Example 83, 16α-Methyl-21-[4-[2,6-bis(pyrrolidino)-4-pyrimidyl]-1-piperazinyl]pregna-1,4,9(11)-triene-3,20-dione dimethane-sulfonate], for which the “inhibition of conjugated diene formation” value in the test on rat brain synaptosomes [1] is “demonstrate such activity by inhibition of conjugated dienes”. Moreover, the “% Increase in 1 hr Post-Injury Grip Test Scores After 3 mg/kg” value in the test with mouse head injury came out at 134.5%. Also, in the test with rat brain synaptosomes [3], the “inhibition of MDA formation” value is listed as “demonstrate such activity by inhibition of MDA formation”. Besides, in the test on interleukin-1, the “% Inhibition at 10⁻⁶ M” value was found to be 62%. Moreover, in the test with mucous secretion, the “inhibition of mucous secretion” value is reported as “preferred mucous inhibitors”.
In the case of `C[C@@H]1C[C@H]2[C@@H]3CCC4=CC(=O)C=C[C@]4(C)C3=CC[C@]2(C)[C@H]1C(=O)CN1CCN(c2cc(N3CCOCC3)nc(N3CCOCC3)n2)CC1` [Example 86], in the test on rat brain synaptosomes [1], the “inhibition of conjugated diene formation” value was “demonstrate such activity by inhibition of conjugated dienes”. Also, the “inhibition of MDA formation” value in the test with rat brain synaptosomes [3] was “demonstrate such activity by inhibition of MDA formation”. The “% Inhibition at 10⁻⁶ M” value with interleukin-1 turned out to be 84%.
Consider `C[C@]12CCC(=O)C=C1CC[C@@H]1C2=CC[C@@]2(C)[C@H]1CC[C@]2(O)C(=O)CN1CCN(c2cc(N3CCOCC3)nc(N3CCOCC3)n2)CC1.Cl.Cl.O` [Example 105, 21-[4-(2,6-Bis(4-morpholinyl)-4-pyrimidinyl)-1-piperazinyl]-17α-hydroxypregna-4,9(11)-diene-3,20-dione dihydrochloride, hydrate], for which the “% Inhibition at 10⁻⁶ M” value in the test on interleukin-1 is 76%. The “inhibition of mucous secretion” value in the test with mucous secretion (dihydrochloride, hydrate) is recorded as “preferred mucous inhibitors”.
For `CCN(CC)c1ccc(N2CCN(CC(=O)[C@H]3CC[C@H]4[C@@H]5CCC6=CC(=O)C=C[C@]6(C)[C@H]5CC[C@]34C)CC2)nc1N(CC)CC.Cl.Cl` [Example 120], the “inhibition of MDA formation” value in the test with rat brain synaptosomes [3] was “demonstrate such activity by inhibition of MDA formation”. In addition, in the test on interleukin-1, the “% Inhibition at 10⁻⁶ M” value is given as 56%. Also, the “inhibition of interleukin 1” value in the test with interleukin-1 (active = inhibits the activity of interleukin 1 greater than 30% at 10⁻⁶ M) is “demonstrate inhibition of interleukin 1”.
